One data set concerns HBV. Nature of the data set: Test of anti HBV activity in vitro (viral DNA by qPCR). It counts as cell-based. Particulars: Hepatitis B virus; HepG2.2.15 cells, viral DNA in cell culture supernatant by qPCR; read-out: EC50 values of the compound of the invention on viral replication. Summed up:
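HepG2.2.15 cells (integrated HBV genome) were grown to confluence, then treated with compound in 4-fold dilutions from 4 μM final (0.5% DMSO). Secreted viral DNA in supernatant was quantified by SYBR qPCR against an HBV plasmid standard curve; EC50 from four-parameter nonlinear regression of concentration versus copy number.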
A general note: In qPCR the cycle at which signal appears reflects the starting amount.

Data set [1] in a line: Cytotoxicity test with CellTiter Glo. The following applies: human, HepG2.2.15 cells, highest concentration 150 μM, read-out: CC50 values of the compounds of the invention. Type of data set: cell-based. As to the method:
Test 2: Cytotoxicity and Selectivity Index
Methods of Testing Cytotoxicity and Selectivity Index
The serial diluted compound was added to a 384 wells plate at 50 μL HepG2.2.15 cell per well (3000 cells per well), the highest final concentration in the experiment is 150 μM (200 fold dilution). The plate was cultured at 37° C. in an incubator with CO2 for 4 days, and cytotoxicity of the compound was detected using CellTiter Glo agent.
The cytotoxicity of the compound was calculated using the following formulate, cytotoxicity (%)=100−(detection value/mean of DMSO control wells values×100) CC50 values were calculated by a four parametric nonlinear regression model using Graphpad Prism 5 software to manage concentration−cytotoxicity (%).
In general terms: In ATP-based viability assays light output follows the ATP content of the culture.

As to `COC(=O)C1=C(CN2CCN3C(=O)N(c4ccc(Sc5ccc(C(=O)O)cc5)cc4)C[C@@H]3C2)NC(c2nccs2)=N[C@H]1c1ccc(F)cc1Cl` [Example 91, 4-((4-((S)-7-(((R)-6-(2-chloro-4-fluorophenyl)-5-(methoxycarbonyl)-2-(thiazol-2-yl)-3,6-dihydropyrimidin-4-yl)methyl)-3-oxohexahydroimidazo[1,5-a]pyrazin-2(3H)-yl)phenyl)thio)benzoic acid], the concentration giving a half-maximal response (EC50) with HBV was 37.7 nM. For the same molecule, the CC50 at 4 days in data set [1] was over 150000 nM.
Turning to `COC(=O)C1=C(CN2CCN3C(=O)N(c4ccc(-c5ccc(C(C)(C)C(=O)O)cc5)nc4)C[C@@H]3C2)NC(c2nccs2)=N[C@H]1c1ccc(F)cc1Cl` [Example 125, 2-(4-(5-((S)-7-(((R)-6-(2-chloro-4-fluorophenyl)-5-(methoxycarbonyl)-2-(thiazol-2-yl)-3,6-dihydropyrimidin-4-yl)methyl)-3-oxohexahydroimidazo[1,5-a]pyrazin-2(3H)-yl)pyridin-2-yl)phenyl)-2-methylpropanoic acid], the EC50 with HBV was 21 nM. In data set [1], the CC50 at 4 days is over 150000 nM.
Taken in the same sequence, the figures for `COC(=O)C1=C(CN2CCN3C(=O)N(c4ccc(OC5CCC(C(=O)O)CC5)cc4F)C[C@@H]3C2)NC(c2nccs2)=N[C@H]1c1ccc(F)cc1Cl` (stereo partly drawn) [Example 112, 4-(4-((S)-7-(((R)-6-(2-chloro-4-fluorophenyl)-5-(methoxycarbonyl)-2-(thiazol-2-yl)-3,6-dihydropyrimidin-4-yl)methyl)-3-oxohexahydroimidazo[1,5-a]pyrazin-2(3H)-yl)-3-fluorophenoxy)cyclohexane carboxylic acid] were 15.4 nM and over 150000 nM.
The matching figures for `COC(=O)C1=C(CN2CCN3C(=O)N(c4ccc(Oc5ccc(C(=O)N(CCO)CCO)cc5)cc4)C[C@@H]3C2)NC(c2nccs2)=N[C@H]1c1ccc(F)cc1Cl` [Example 64, (R)-methyl 6-(((S)-2-(4-(4-(bis(2-hydroxyethyl)carbamoyl)phenoxy)phenyl)-3-oxohexahydroimidazo[1,5-a]pyrazin-7(1H)-yl)methyl)-4-(2-chloro-4-fluorophenyl)-2-(thiazol-2-yl)-1,4-dihydropyrimidine-5-carboxylate]: 24.9 nM and over 150000 nM.
The matching figures for `COC(=O)C1=C(CN2CCN3C(=O)N(c4ccc(N5CCO[C@H](CCC(=O)O)C5)cc4)C[C@@H]3C2)NC(c2nccs2)=N[C@H]1c1ccc(F)cc1Cl` [Example 20, 3-((R)-4-(4-((S)-7-(((R)-6-(2-chloro-4-fluorophenyl)-5-(methoxycarbonyl)-2-(thiazol-2-yl)-3,6-dihydropyrimidin-4-yl)methyl)-3-oxohexahydroimidazo[1,5-a]pyrazin-2(3H)-yl)phenyl)morpholin-2-yl)propionic acid]: 4 nM and over 150000 nM.
Take `COC(=O)C1=C(CN2CCN3C(=O)N(c4ccc(-c5ccc(C(C)(C)C(=O)O)cc5)cn4)C[C@@H]3C2)NC(c2nccs2)=N[C@H]1c1ccc(F)cc1Cl` [Example 19, 2-(4-(6-((S)-7-(((R)-6-(2-chloro-4-fluorophenyl)-5-(methoxycarbonyl)-2-(thiazol-2-yl)-3,6-dihydropyrimidin-4-yl)methyl)-3-oxohexahydroimidazo[1,5-a]pyrazin-2(3H)-yl)pyridin-3-yl)phenyl)-2-methylpropionic acid]: the concentration for a half-maximal effect (EC50) in the data set with HBV worked out at 14 nM. In addition, in data set [1], the CC50 at 4 days is over 150000 nM.
Take `COC(=O)C1=C(CN2CCN3C(=O)N(c4ccc(Oc5ccc(OC)cc5)cc4)C[C@@H]3C2)NC(c2nccs2)=N[C@H]1c1ccc(F)cc1Cl` [Example 103, (R)-methyl 4-(2-chloro-4-fluorophenyl)-6-(((S)-2-(4-(4-methoxyphenoxy)phenyl)-3-oxohexahydroimidazo[1,5-a]pyrazin-7(1H)-yl)methyl)-2-me (thiazol-2-yl)-1,4-dihydropyrimidine-5-carboxylate]: the concentration for a half-maximal effect (EC50) in the data set with HBV came to 19.4 nM. Moreover, the 50% cytotoxic concentration (CC50) at 4 days in data set [1] is over 150000 nM.
Take `COC(=O)C1=C(CN2CCN3C(=O)N(CC#Cc4ccc(S(C)(=O)=O)cc4)C[C@@H]3C2)NC(c2nccs2)=N[C@H]1c1ccc(F)cc1Cl` [Example 41, (R)-methyl 4-(2-chloro-4-fluorophenyl)-6-(((S)-2-(3-(4-(methylsulfonyl)phenyl)-2-propyn-1-yl)-3-oxohexahydroimidazo[1,5-a]pyrazin-7(1H)-yl)methyl)-2-(thiazol-2-yl)-1,4-dihydropyrimidine-5-carboxylate]: the half-maximal effective concentration (EC50) in the data set on HBV was found to be 5.1 nM. Further, the CC50 at 4 days in data set [1] is over 150000 nM.
Taken in the same sequence, the figures for `COC(=O)C1=C(CN2CCN3C(=O)N(c4ccc(Oc5ccc(C(=O)NCCCC(=O)N(C)C)cc5)cc4)C[C@@H]3C2)NC(c2nccs2)=N[C@H]1c1ccc(F)cc1Cl` [Example 71, (R)-methyl 4-(2-chloro-4-fluorophenyl)-6-(((S)-2-(4-(4-((4-(dimethylamino)-4-oxobutyl)carbamoyl)phenoxy)phenyl)-3-oxohexahydroimidazo[1,5-a]pyrazin-7(1H)-yl)methyl)-2-(thiazol-2-yl)-1,4-dihydropyrimidine-5-carboxylate] were 16.6 nM and over 150000 nM.
The matching figures for `COC(=O)C1=C(CN2CCN3C(=O)N(c4ccc(Sc5ccc(OC(C)C)cc5)cc4)C[C@@H]3C2)NC(c2nccs2)=N[C@H]1c1ccc(F)cc1Cl` [Example 105, (R)-methyl 4-(2-chloro-4-fluorophenyl)-6-(((S)-2-(4-((4-isopropoxyphenyl)thio)phenyl)-3-oxohexahydroimidazo[1,5-a]pyrazin-7(1H)-yl)methyl)-2-(thiazol-2-yl)-1,4-dihydropyrimidine-5-carboxylate]: 29 nM and over 150000 nM.
Taken in the same sequence, the figures for `COC(=O)C1=C(CN2CCN3C(=O)N(c4ccc(Oc5ccc(C(=O)N6CC(O)C6)cc5)cc4)C[C@@H]3C2)NC(c2nccs2)=N[C@H]1c1ccc(F)cc1Cl` [Example 61, (R)-methyl 4-(2-chloro-4-fluorophenyl)-6-(((S)-2-(4-(4-(3-hydroxyazetidine-1-carbonyl)phenoxy)phenyl)-3-oxohexahydroimidazo[1,5-a]pyrazin-7(1H)-yl)methyl)-2-(thiazol-2-yl)-1,4-dihydropyrimidine-5-carboxylate] were 15 nM and over 150000 nM.
For the molecule `COC(=O)C1=C(CN2CCN3C(=O)N(c4ccc(=O)n(-c5ccc(C(=O)O)cc5F)c4)C[C@@H]3C2)NC(c2nccs2)=N[C@H]1c1ccc(F)cc1Cl` [Example 80, 4-(5-((S)-7-(((R)-6-(2-chloro-4-fluorophenyl)-5-(methoxycarbonyl)-2-(thiazol-2-yl)-3,6-dihydropyrimidin-4-yl)methyl)-3-oxohexahydroimidazo[1,5-a]pyrazin-2(3H)-yl)-2-oxopyridin-1(2H)-yl)-3-fluorobenzoic acid], the EC50 in the data set with HBV came out at 15.8 nM. In data set [1], the CC50 at 4 days is over 150000 nM.
In the case of `COC(=O)C1=C(CN2CCN3C(=O)N(c4ccc(-c5ccc(C(=O)O)cc5)c(F)c4)C[C@@H]3C2)NC(c2nccs2)=N[C@H]1c1ccc(F)cc1Cl` [Example 35, 4′-((S)-7-(((R)-6-(2-chloro-4-fluorophenyl)-5-(methoxycarbonyl)-2-(thiazol-2-yl)-3,6-dihydropyrimidin-4-yl)methyl)-3-oxohexahydroimidazo[1,5-a]pyrazin-2(3H)-yl)-2′-fluoro-[1,1′-diphenyl]-4-carboxylic acid], the EC50 with HBV came out at 7 nM. The 50% cytotoxic concentration (CC50) at 4 days in data set [1] is over 150000 nM.
The matching figures for `COC(=O)C1=C(CN2CCN3C(=O)N(c4cc(F)cc(-c5ccc(C(=O)O)cc5)c4)C[C@@H]3C2)NC(c2nccs2)=N[C@H]1c1ccc(F)cc1Cl` [Example 117, 3′-((S)-7-(((R)-6-(2-chloro-4-fluorophenyl)-5-(methoxycarbonyl)-2-(thiazol-2-yl)-3,6-dihydroprimidin-4-yl)methyl)-3-oxohexahydroimidazo[1,5-a]pyrazin-2(3H)-yl)-5′-fluoro-[1,1′-biphenyl]-4-carboxylic acid]: 18.8 nM and over 150000 nM.
The matching figures for `COC(=O)C1=C(CN2CCN3C(=O)N(c4ccc(Oc5ccc(C(=O)N6CCO[C@H](CCC(=O)O)C6)cc5)cc4)C[C@@H]3C2)NC(c2nccs2)=N[C@H]1c1ccc(F)cc1Cl` [Example 74, 3-((R)-4-(4-(4-(((S)-7-((R)-6-(2-chloro-4-fluorophenyl)-5-(methoxycarbonyl)-2-(thiazol-2-yl)-3,6-dihydropyrimidin-4-yl)methyl)-3-oxohexahydroimidazo[1,5-a]pyrazin-2(3H)-yl)phenoxy)benzoyl)morpholin-2-yl)propanoic acid]: 30.7 nM and over 150000 nM.
Taken in the same sequence, the figures for `COC(=O)C1=C(CN2CCN3C(=O)N(CC#Cc4ccc(S(=O)(=O)N(C)C)cc4)C[C@@H]3C2)NC(c2nccs2)=N[C@H]1c1ccc(F)cc1Cl` [Example 43, (R)-methyl 4-(2-chloro-4-fluorophenyl)-6-(((S)-2-(3-(4-(N,N-dimethylaminosulfonyl)phenyl)prop-2-yn-1-yl)-3-oxohexahydroimidazo[1,5-a]pyrazin-7(1H)-yl)methyl)-2-(thiazol-2-yl)-1,4-dihydropyrimidine-5-carboxylate] were 7.2 nM and over 150000 nM.

As usually defined, the EC50 is the concentration at which the effect is half-maximal. Usually CC50 stands for the concentration at which the toxic effect on the cells reaches its halfway point.

The values are drawn from US11142527B2, “Dihydropyrimidine compounds and uses thereof in medicine” (SUNSHINE LAKE PHARMA CO., LTD., priority 2017, dated 2021).
